{"source": "patent US4363805A", "about": "“Aminodesoxy-1.4;3.6-dianhydrohexitol nitrates and pharmaceutical composition” (Firma Willmar Schwabe, priority 1980, dated 1982)", "key": {"[1]": {"test_system": "isolated guinea pig hearts", "experiment": "Experiments on Langendorff hearts (coronary flowthrough, inotropism, frequency)", "settings": "Cavia porcellus, read-out: flowthrough, percentage change with regard to the initial value", "method": "After reaching the stationary state in the 30th minute, the hearts were each perfused with 50 ml. tyrode solution with a content of test substance of, in each case, 25 μg./ml. Each test substance was tested on 3-6 hearts.\nIn each case, there was measured the inotropism, the flowthrough and the frequency, whereby the values given in Table I are average values of the percentage changes in comparison with the initial values."}, "[2]": {"test_system": "narcotised guinea pigs", "experiment": "Blood pressure experiments on guinea pigs, i.v.", "type": "in vivo, guinea pig", "settings": "for blood pressure before: before administration"}, "[3]": {"experiment": "Acute toxicity, intravenous, mice", "type": "in vivo", "settings": "mouse, in vivo; intravenous, within 24 hours; read-out: Evaluated LD50-range"}, "[4]": {"test_system": "female NMRI-albino mice", "experiment": "Acute toxicity, intravenous, mice", "type": "in vivo", "settings": "within 24 hours"}, "[5]": {"test_system": "mongrel cats", "experiment": "Inotropic and heart-circulatory effectiveness on narcotised cats, intravenous", "type": "in vivo, cat", "settings": "6 animals"}, "[6]": {"settings": "0.25 mg/kg i.v., before administration"}}, "data": [{"smiles": "Cc1cccc(OCC(O)CN[C@H]2CO[C@H]3[C@@H]2OC[C@@H]3O[N+](=O)[O-])c1", "note": "(stereo partly drawn) [Example 51, 5-[2-Hydroxy-3-(3-tolyloxy)-propylamino]-5-desoxy-1.4;3.6-dianhydro-L-iditol 2-nitrate]", "values": [{"measurement": "activation at 25 µg/mL", "setting": "[1]", "value": 92.4, "unit": "%"}, {"measurement": "blood pressure after", "setting": "[2]; 0.25 mg/kg i.v.", "value": "63.00 ± 2.35", "unit": "mm.Hg"}, {"measurement": "blood pressure Δ", "setting": "[2]; 0.25 mg/kg i.v.", "value": -3.75, "unit": "mm.Hg"}, {"measurement": "blood pressure before", "setting": "[2]; 0.25 mg/kg i.v.", "value": "66.75 ± 2.49", "unit": "mm.Hg"}, {"measurement": "blood pressure after", "setting": "[2]; 1.00 mg/kg i.v.", "value": "55.75 ± 2.36", "unit": "mm.Hg"}, {"measurement": "blood pressure Δ", "setting": "[2]; 1.00 mg/kg i.v.", "value": -10.25, "unit": "mm.Hg"}, {"measurement": "blood pressure after", "setting": "[2]; 2.50 mg/kg i.v.", "value": "42.25 ± 1.32", "unit": "mm.Hg"}, {"measurement": "blood pressure Δ", "setting": "[2]; 2.50 mg/kg i.v.", "value": -23.50, "unit": "mm.Hg"}, {"measurement": "LD50 at 24 h", "setting": "[3]", "value": "50 to 100", "unit": "mg/kg"}, {"measurement": "Frequency of death", "setting": "[4]; 50 mg/kg i.v.", "value": "0/3"}, {"measurement": "Frequency of death", "setting": "[4]; 100 mg/kg i.v.", "value": "3/3"}, {"measurement": "Frequency of death", "setting": "[4]; 200 mg/kg i.v.", "value": "6/6"}]}, {"smiles": "O=[N+]([O-])O[C@H]1CO[C@H]2[C@@H]1OC[C@@H]2NCCCc1ccccc1", "note": "[Example 28, 5-(3-Phenylpropylamino)-5-desoxy-1.4;3.6-dianhydro-L-iditol 2-nitrate]", "values": [{"measurement": "activation at 25 µg/mL", "setting": "[1]", "value": 68.1, "unit": "%"}, {"measurement": "blood pressure before", "setting": "[5]; [6]", "value": 101.3, "unit": "mm.Hg"}, {"measurement": "dp/dt (inotropism) before", "setting": "[5]; [6]", "value": 7667, "unit": "mm.Hg/sec"}, {"measurement": "heart frequency before", "setting": "[5]; [6]", "value": 225.0, "unit": "min⁻¹"}, {"measurement": "blood pressure WD", "setting": "[5]; 0.25 mg/kg i.v.", "value": 3.1, "unit": "min"}, {"measurement": "blood pressure after", "setting": "[5]; 0.25 mg/kg i.v.", "value": 81.8, "unit": "mm.Hg"}, {"measurement": "blood pressure Δ", "setting": "[5]; 0.25 mg/kg i.v.", "value": -19.5, "unit": "mm.Hg"}, {"measurement": "dp/dt (inotropism) after", "setting": "[5]; 0.25 mg/kg i.v.", "value": 7400, "unit": "mm.Hg/sec"}, {"measurement": "dp/dt (inotropism) Δ", "setting": "[5]; 0.25 mg/kg i.v.", "value": -267, "unit": "mm.Hg/sec"}, {"measurement": "dp/dt WD", "setting": "[5]; 0.25 mg/kg i.v.", "value": 2.7, "unit": "min"}, {"measurement": "heart frequency after", "setting": "[5]; 0.25 mg/kg i.v.", "value": 223.3, "unit": "min⁻¹"}, {"measurement": "heart frequency Δ", "setting": "[5]; 0.25 mg/kg i.v.", "value": -1.7, "unit": "min⁻¹"}, {"measurement": "blood pressure WD", "setting": "[5]; 0.50 mg/kg i.v.", "value": 5.8, "unit": "min"}, {"measurement": "blood pressure after", "setting": "[5]; 0.50 mg/kg i.v.", "value": 79.0, "unit": "mm.Hg"}, {"measurement": "blood pressure Δ", "setting": "[5]; 0.50 mg/kg i.v.", "value": -25.9, "unit": "mm.Hg"}, {"measurement": "dp/dt (inotropism) after", "setting": "[5]; 0.50 mg/kg i.v.", "value": 6567, "unit": "mm.Hg/sec"}, {"measurement": "dp/dt (inotropism) Δ", "setting": "[5]; 0.50 mg/kg i.v.", "value": -1000, "unit": "mm.Hg/sec"}, {"measurement": "dp/dt WD", "setting": "[5]; 0.50 mg/kg i.v.", "value": 10.7, "unit": "min"}, {"measurement": "heart frequency after", "setting": "[5]; 0.50 mg/kg i.v.", "value": 226.3, "unit": "min⁻¹"}, {"measurement": "heart frequency Δ", "setting": "[5]; 0.50 mg/kg i.v.", "value": -1.7, "unit": "min⁻¹"}, {"measurement": "blood pressure WD", "setting": "[5]; 1.00 mg/kg i.v.", "value": 12.2, "unit": "min"}, {"measurement": "blood pressure after", "setting": "[5]; 1.00 mg/kg i.v.", "value": 70.0, "unit": "mm.Hg"}, {"measurement": "blood pressure Δ", "setting": "[5]; 1.00 mg/kg i.v.", "value": -39.7, "unit": "mm.Hg"}, {"measurement": "dp/dt (inotropism) after", "setting": "[5]; 1.00 mg/kg i.v.", "value": 5533, "unit": "mm.Hg/sec"}, {"measurement": "dp/dt (inotropism) Δ", "setting": "[5]; 1.00 mg/kg i.v.", "value": -1534, "unit": "mm.Hg/sec"}, {"measurement": "dp/dt WD", "setting": "[5]; 1.00 mg/kg i.v.", "value": 23.0, "unit": "min"}, {"measurement": "heart frequency after", "setting": "[5]; 1.00 mg/kg i.v.", "value": 227.0, "unit": "min⁻¹"}, {"measurement": "heart frequency Δ", "setting": "[5]; 1.00 mg/kg i.v.", "value": -1.0, "unit": "min⁻¹"}, {"measurement": "blood pressure WD", "setting": "[5]; 2.50 mg/kg i.v.", "value": "> 10", "unit": "min"}, {"measurement": "blood pressure after", "setting": "[5]; 2.50 mg/kg i.v.", "value": 53.2, "unit": "mm.Hg"}, {"measurement": "blood pressure Δ", "setting": "[5]; 2.50 mg/kg i.v.", "value": -50.3, "unit": "mm.Hg"}, {"measurement": "dp/dt (inotropism) after", "setting": "[5]; 2.50 mg/kg i.v.", "value": 3600, "unit": "mm.Hg/sec"}, {"measurement": "dp/dt (inotropism) Δ", "setting": "[5]; 2.50 mg/kg i.v.", "value": -3067, "unit": "mm.Hg/sec"}, {"measurement": "dp/dt WD", "setting": "[5]; 2.50 mg/kg i.v.", "value": "> 10", "unit": "min"}, {"measurement": "heart frequency after", "setting": "[5]; 2.50 mg/kg i.v.", "value": 206.3, "unit": "min⁻¹"}, {"measurement": "heart frequency Δ", "setting": "[5]; 2.50 mg/kg i.v.", "value": -22.0, "unit": "min⁻¹"}, {"measurement": "LD50 at 24 h", "setting": "[3]", "value": "50 to 100", "unit": "mg/kg"}, {"measurement": "Frequency of death", "setting": "[4]; 50 mg/kg i.v.", "value": "0/10"}, {"measurement": "Frequency of death", "setting": "[4]; 100 mg/kg i.v.", "value": "5/6"}, {"measurement": "Frequency of death", "setting": "[4]; 200 mg/kg i.v.", "value": "3/3"}]}, {"smiles": "O=[N+]([O-])O[C@H]1CO[C@H]2[C@@H]1OC[C@@H]2N1CCCCC1", "note": "[15 b]", "values": [{"measurement": "activation at 25 µg/mL", "setting": "[1]", "value": 34, "unit": "%"}, {"measurement": "blood pressure after", "setting": "[2]; 0.25 mg/kg i.v.", "value": "63.00 ± 1.83", "unit": "mm.Hg"}, {"measurement": "blood pressure Δ", "setting": "[2]; 0.25 mg/kg i.v.", "value": -9.00, "unit": "mm.Hg"}, {"measurement": "blood pressure before", "setting": "[2]; 0.25 mg/kg i.v.", "value": "72.00 ± 2.12", "unit": "mm.Hg"}, {"measurement": "blood pressure after", "setting": "[2]; 1.00 mg/kg i.v.", "value": "53.50 ± 1.71", "unit": "mm.Hg"}, {"measurement": "blood pressure Δ", "setting": "[2]; 1.00 mg/kg i.v.", "value": -17.75, "unit": "mm.Hg"}, {"measurement": "blood pressure after", "setting": "[2]; 2.50 mg/kg i.v.", "value": "49.00 ± 2.48", "unit": "mm.Hg"}, {"measurement": "blood pressure Δ", "setting": "[2]; 2.50 mg/kg i.v.", "value": -23.00, "unit": "mm.Hg"}, {"measurement": "LD50 at 24 h", "setting": "[3]", "value": "50 to 100", "unit": "mg/kg"}, {"measurement": "Frequency of death", "setting": "[4]; 50 mg/kg i.v.", "value": "0/3"}, {"measurement": "Frequency of death", "setting": "[4]; 100 mg/kg i.v.", "value": "2/3"}, {"measurement": "Frequency of death", "setting": "[4]; 200 mg/kg i.v.", "value": "6/6"}]}, {"smiles": "O=[N+]([O-])O[C@H]1CO[C@H]2[C@@H]1OC[C@@H]2N1CCOCC1", "note": "[16 b]", "values": [{"measurement": "activation at 25 µg/mL", "setting": "[1]", "value": 14.7, "unit": "%"}, {"measurement": "blood pressure after", "setting": "[2]; 0.25 mg/kg i.v.", "value": "59.50 ± 5.63", "unit": "mm.Hg"}, {"measurement": "blood pressure Δ", "setting": "[2]; 0.25 mg/kg i.v.", "value": -9.25, "unit": "mm.Hg"}, {"measurement": "blood pressure before", "setting": "[2]; 0.25 mg/kg i.v.", "value": "68.75 ± 3.07", "unit": "mm.Hg"}, {"measurement": "blood pressure after", "setting": "[2]; 1.00 mg/kg i.v.", "value": "48.25 ± 4.80", "unit": "mm.Hg"}, {"measurement": "blood pressure Δ", "setting": "[2]; 1.00 mg/kg i.v.", "value": -19.75, "unit": "mm.Hg"}, {"measurement": "blood pressure after", "setting": "[2]; 2.50 mg/kg i.v.", "value": "43.25 ± 4.91", "unit": "mm.Hg"}, {"measurement": "blood pressure Δ", "setting": "[2]; 2.50 mg/kg i.v.", "value": -23.50, "unit": "mm.Hg"}, {"measurement": "LD50 at 24 h", "setting": "[3]", "value": "> 200", "unit": "mg/kg"}, {"measurement": "Frequency of death", "setting": "[4]; 200 mg/kg i.v.", "value": "0/3"}]}, {"smiles": "CN(C)[C@H]1CO[C@H]2[C@@H]1OC[C@@H]2O[N+](=O)[O-]", "note": "[12 b]", "values": [{"measurement": "activation at 25 µg/mL", "setting": "[1]", "value": 16.2, "unit": "%"}, {"measurement": "LD50 at 24 h", "setting": "[3]", "value": "> 200", "unit": "mg/kg"}, {"measurement": "Frequency of death", "setting": "[4]; 200 mg/kg i.v.", "value": "0/3"}]}, {"smiles": "CCN(CC)[C@H]1CO[C@H]2[C@@H]1OC[C@@H]2O[N+](=O)[O-]", "note": "[13 b]", "values": [{"measurement": "activation at 25 µg/mL", "setting": "[1]", "value": 9.05, "unit": "%"}, {"measurement": "LD50 at 24 h", "setting": "[3]", "value": "100 to 200", "unit": "mg/kg"}, {"measurement": "Frequency of death", "setting": "[4]; 100 mg/kg i.v.", "value": "0/3"}, {"measurement": "Frequency of death", "setting": "[4]; 200 mg/kg i.v.", "value": "6/6"}]}]}
